Experiments:
Enterococcus sp. = assay: in vitro antibacterial evaluation, MIC by broth dilution; format: cell-based; conditions: broth dilution, 18 hours at 35° C.
In short: (§1)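 Broth dilution per NCCLS M7-A2 in Mueller-Hinton II medium, inoculum 5×10^5 CFU/mL, antibiotic range 64-0.06 μg/mL. MIC taken as lowest concentration inhibiting growth; Gram-positive panel includes recent clinical isolates resistant to methicillin, penicillin and/or vancomycin.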

Escherichia coli = assay: as above; format: cell-based; conditions: 18 hours at 35° C.
In short: as §1

Staphylococcus sp. = assay: as above; format: cell-based; conditions: broth dilution, 18 hours at 35° C.
In short: as §1

Streptococcus sp. = assay: as above; format: cell-based; conditions: broth dilution, 18 hours at 35° C.
In short: as §1

[1] = test system: Enterococcus faecalis (GC 6189); assay: acute lethal infection in mice; format: in vivo; conditions: female CD-1 mice, intraperitoneal challenge, intravenous 30 min. after infection, 7 day survival
In short: (§2)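 Protocol: bacteria suspended in trypticase soy broth or hog gastric mucin injected ip into female CD-1 mice at a level killing untreated controls in 24-48 hr; compound given iv in saline or 5% dextrose 30 min post-challenge; five mice per dose; ED50 derived from pooled 7 day survival of three runs.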

[2] = test system: Staphylococcus aureus-SMITH (GC 4543); assay: acute lethal infection in mice; format: in vivo; conditions: acute lethal infection, female CD-1 mice, intraperitoneal challenge, intravenous 30 min. after infection, 7 day survival
In short: as §2

CC(c1ccccc1)C1NC(=O)CNC(=O)C(CO)NC(=O)C(C(O)C2CNC(=N)N2C2OC(CO)C(O)C(O)C2O)NC(=O)C(C(O)C2CNC(=N)N2)NC(=O)C(Cc2ccc(OC3OC(CO)C(OC4OC5COC(C6CC=CCC6)OC5C(O)C4O)C(O)C3O)cc2)NC1=O (stereo not drawn) [Example 115, Cyclo[glycyl-β-methylphenylalanyl-O-[4-O-[4,6-O-(cyclohex-3-en-1-ylmethylene)hexopyranosyl]hexopyranosyl]tyrosyl-3-(2-iminoimidazolidin-4-yl)seryl-3-(3-hexopyranosyl-2-iminoimidazolidin-4-yl)serylseryl]]
0.23 mg/kg: median effective dose (ED50), Staphylococcus aureus-SMITH (GC 4543) [2]
4 µg/mL: MIC Enterococcus faecalis (GC 4553) (Enterococcus sp.; Enterococcus faecalis (GC 4553)) | MIC Enterococcus faecalis (GC 4553) (Enterococcus sp.; strain GC 4553)
0.36 mg/kg: median effective dose (ED50), Enterococcus faecalis (GC 6189) [1]
32 µg/mL: MIC Escherichia coli (ATCC 25922) (Escherichia coli; strain ATCC 25922)
0.5 µg/mL: MIC Coagulase Negative Staphylococcus (GC 4548) (Staphylococcus sp.) | MIC Coagulase Negative Staphylococcus (GC 6257) (Staphylococcus sp.) | MIC Staphylococcus aureus (GC 4542) (Staphylococcus sp.) | MIC Staphylococcus aureus (GC 4545) (Staphylococcus sp.) | MIC Staphylococcus haemolyticus (GC 4546) (Staphylococcus sp.) | MIC Staphylococcus aureus (GC 4542) (Staphylococcus sp.; strain GC 4542) | MIC Staphylococcus aureus (GC 4545) (Staphylococcus sp.; strain GC 4545) | MIC Staphylococcus haemolyticus (GC 4546) (Staphylococcus sp.; strain GC 4546) | MIC Coagulase Negative Staphylococcus (GC 4548) (Staphylococcus sp.; strain GC 4548) | MIC Coagulase Negative Staphylococcus (GC 6257) (Staphylococcus sp.; strain GC 6257)
2 µg/mL: MIC Enterococcus avium (GC 4558) (Enterococcus sp.; Enterococcus avium (GC 4558)) | MIC Enterococcus faecalis (ATCC 29212) (Enterococcus sp.; Enterococcus faecalis (ATCC 29212)) | MIC Enterococcus faecalis (GC 2242) (Enterococcus sp.; Enterococcus faecalis (GC 2242)) | MIC Enterococcus faecalis (GC 2691) (Enterococcus sp.; Enterococcus faecalis (GC 2691)) | MIC Enterococcus faecalis (GC 3059) (Enterococcus sp.; Enterococcus faecalis (GC 3059)) | MIC Enterococcus faecalis (GC 4552) (Enterococcus sp.; Enterococcus faecalis (GC 4552)) | MIC Enterococcus faecalis (GC 4554) (Enterococcus sp.; Enterococcus faecalis (GC 4554)) | MIC Enterococcus faecalis (GC 6189) (Enterococcus sp.; Enterococcus faecalis (GC 6189)) | MIC Enterococcus faecium (GC 2243) (Enterococcus sp.; Enterococcus faecium (GC 2243)) | MIC Enterococcus faecium (GC 4556) (Enterococcus sp.; Enterococcus faecium (GC 4556)) | MIC Enterococcus faecium (GC 4557) (Enterococcus sp.; Enterococcus faecium (GC 4557)) | MIC Enterococcus faecalis (ATCC 29212) (Enterococcus sp.; strain ATCC 29212) | MIC Enterococcus faecalis (GC 2242) (Enterococcus sp.; strain GC 2242) | MIC Enterococcus faecium (GC 2243) (Enterococcus sp.; strain GC 2243) | MIC Enterococcus faecalis (GC 2691) (Enterococcus sp.; strain GC 2691) | MIC Enterococcus faecalis (GC 3059) (Enterococcus sp.; strain GC 3059) | MIC Enterococcus faecalis (GC 4552) (Enterococcus sp.; strain GC 4552) | MIC Enterococcus faecalis (GC 4554) (Enterococcus sp.; strain GC 4554) | MIC Enterococcus faecium (GC 4556) (Enterococcus sp.; strain GC 4556) | MIC Enterococcus faecium (GC 4557) (Enterococcus sp.; strain GC 4557) | MIC Enterococcus avium (GC 4558) (Enterococcus sp.; strain GC 4558) | MIC Enterococcus faecalis (GC 6189) (Enterococcus sp.; strain GC 6189)
<0.06 µg/mL: MIC Streptococcus pneumoniae (ATCC 6301) (Streptococcus sp.; Streptococcus pneumoniae (ATCC 6301)) | MIC Streptococcus pneumoniae (GC 1894) (Streptococcus sp.; Streptococcus pneumoniae (GC 1894)) | MIC Streptococcus pneumoniae (ATCC 6301) (Streptococcus sp.; strain ATCC 6301) | MIC Streptococcus pneumoniae (GC 1894) (Streptococcus sp.; strain GC 1894)
0.25 µg/mL: MIC Streptococcus agalactiae (GC 4564) (Streptococcus sp.; Streptococcus agalactiae (GC 4564)) | MIC Streptococcus pyogenes (GC 4563) (Streptococcus sp.; Streptococcus pyogenes (GC 4563)) | MIC Streptococcus pyogenes (GC 4563) (Streptococcus sp.; strain GC 4563) | MIC Streptococcus agalactiae (GC 4564) (Streptococcus sp.; strain GC 4564)
1 µg/mL: MIC Escherichia coli (GC 4560) (Escherichia coli; strain GC 4560) | MIC Coagulase Negative Staphylococcus (GC 4547) (Staphylococcus sp.) | MIC Coagulase Negative Staphylococcus (GC 4549) (Staphylococcus sp.) | MIC Coagulase Negative Staphylococcus (GC 4551) (Staphylococcus sp.) | MIC Staphylococcus aureus (ATCC 29213) (Staphylococcus sp.) | MIC Staphylococcus aureus (GC 1131) (Staphylococcus sp.) | MIC Staphylococcus aureus (GC 3051) (Staphylococcus sp.) | MIC Staphylococcus aureus (GC 3053) (Staphylococcus sp.) | MIC Staphylococcus aureus (GC 4541) (Staphylococcus sp.) | MIC Staphylococcus aureus (GC 4544) (Staphylococcus sp.) | MIC Staphylococcus aureus-SMITH (GC 4543) (Staphylococcus sp.) | MIC Staphylococcus aureus (GC 1131) (Staphylococcus sp.; inoculum 5×10^5 CFU/mL, strain GC 1131) | MIC Staphylococcus aureus (ATCC 29213) (Staphylococcus sp.; strain ATCC 29213) | MIC Staphylococcus aureus (GC 3051) (Staphylococcus sp.; strain GC 3051) | MIC Staphylococcus aureus (GC 3053) (Staphylococcus sp.; strain GC 3053) | MIC Staphylococcus aureus (GC 4541) (Staphylococcus sp.; strain GC 4541) | MIC Staphylococcus aureus (GC 4544) (Staphylococcus sp.; strain GC 4544) | MIC Coagulase Negative Staphylococcus (GC 4547) (Staphylococcus sp.; strain GC 4547) | MIC Coagulase Negative Staphylococcus (GC 4549) (Staphylococcus sp.; strain GC 4549) | MIC Coagulase Negative Staphylococcus (GC 4551) (Staphylococcus sp.; strain GC 4551) | MIC Staphylococcus aureus-SMITH (GC 4543) (Staphylococcus sp.; strain SMITH GC 4543)
64 µg/mL: MIC Escherichia coli (GC 4559) (Escherichia coli; strain GC 4559)
0.12 µg/mL: MIC Streptococcus pneumoniae (GC 4565) (Streptococcus sp.; Streptococcus pneumoniae (GC 4565)) | MIC Streptococcus pneumoniae (GC 4565) (Streptococcus sp.; strain GC 4565)
